Measurements: ChEMBL document CHEMBL3421558, “Structure activity relationship of substituted 1,5-naphthyridine analogs of oxabicyclooctane-linked novel bacterial topoisomerase inhibitors as broad-spectrum antibacterial agents (Part-4)” (Bioorg Med Chem Lett, 2015)
Converted amounts (≈) assume the structure as drawn.

Columns and labels:
Pseudomonas aeruginosa = test: Antimicrobial activity against Pseudomonas aeruginosa PAO1 by micro broth dilution or agar based method; format: functional; settings: Pseudomonas aeruginosa, PAO1; read-out: MIC
Staphylococcus aureus [1] = test: Antimicrobial activity against methicillin-resistant Staphylococcus aureus OIT971 by micro broth dilution or agar based method; format: functional
Acinetobacter baumannii = test: Antimicrobial activity against Acinetobacter baumannii IID876 by micro broth dilution or agar based method; format: functional; settings: Acinetobacter baumannii, IID876; read-out: MIC
Enterococcus faecium = test: Antimicrobial activity against VanA expressing vancomycin-resistant Enterococcus faecium by micro broth dilution or agar based method; format: functional; settings: Enterococcus faecium; read-out: MIC
[2] = Oral bioavailability in C57BL/6 mouse at 10 mg/kg; format: ADME, organism-based; settings: in vivo
Escherichia coli = test: Antimicrobial activity against Escherichia coli ATCC 25922 by micro broth dilution or agar based method; format: functional; settings: Escherichia coli, ATCC 25922; read-out: MIC
Staphylococcus aureus [3] = test: Antimicrobial activity against Staphylococcus aureus Smith by micro broth dilution or agar based method; format: functional; settings: Staphylococcus aureus, Smith; read-out: MIC
Streptococcus pneumoniae = test: Antimicrobial activity against Streptococcus pneumoniae IID553 by micro broth dilution or agar based method; format: functional; settings: Streptococcus pneumoniae, IID553; read-out: MIC
[4] = Half life in C57BL/6 mouse at 1 mg/kg, iv or 10 mg/kg, po; format: ADME, organism-based; settings: in vivo
[5] = Volume of distribution at steady state in C57BL/6 mouse at 1 mg/kg, iv or 10 mg/kg, po; format: ADME, organism-based; settings: in vivo, read-out: Vdss
Mus musculus = test: Dose normalized AUC in C57BL/6 mouse at 1 mg/kg, iv; format: ADME, organism-based; set-up: dose 1 mg/kg, route intravenous; settings: in vivo
[6] = Plasma clearance in C57BL/6 mouse at 1 mg/kg, iv or 10 mg/kg, po; format: ADME, organism-based
[7] = target: Voltage-gated inwardly rectifying potassium channel KCNH2 (Homo sapiens, UniProt Q12809); test: Inhibition of MK499 binding to human ERG
Staphylococcus aureus [8] = test: Potency index, ratio of MIC for quinolone-resistant Staphylococcus aureus MS5935 to MIC for quinolone-[…]; format: functional
Staphylococcus aureus [9] = test: Antimicrobial activity against Staphylococcus aureus in orally dosed mouse bacteremia survival model; format: functional; settings: po
Staphylococcus aureus [10] = test: Antimicrobial activity against Staphylococcus aureus in iv dosed mouse bacteremia survival model; format: functional
Staphylococcus aureus [11] = test: Antimicrobial activity against quinolone-sensitive Staphylococcus aureus MS5935 by micro broth dilution or agar based method
Staphylococcus aureus [12] = test: Antimicrobial activity against quinolone-resistant Staphylococcus aureus MS5935 by micro broth dilution or agar based method; format: functional

Voltage-gated inwardly rectifying potassium channel KCNH2, sequence (Q12809 whole entry): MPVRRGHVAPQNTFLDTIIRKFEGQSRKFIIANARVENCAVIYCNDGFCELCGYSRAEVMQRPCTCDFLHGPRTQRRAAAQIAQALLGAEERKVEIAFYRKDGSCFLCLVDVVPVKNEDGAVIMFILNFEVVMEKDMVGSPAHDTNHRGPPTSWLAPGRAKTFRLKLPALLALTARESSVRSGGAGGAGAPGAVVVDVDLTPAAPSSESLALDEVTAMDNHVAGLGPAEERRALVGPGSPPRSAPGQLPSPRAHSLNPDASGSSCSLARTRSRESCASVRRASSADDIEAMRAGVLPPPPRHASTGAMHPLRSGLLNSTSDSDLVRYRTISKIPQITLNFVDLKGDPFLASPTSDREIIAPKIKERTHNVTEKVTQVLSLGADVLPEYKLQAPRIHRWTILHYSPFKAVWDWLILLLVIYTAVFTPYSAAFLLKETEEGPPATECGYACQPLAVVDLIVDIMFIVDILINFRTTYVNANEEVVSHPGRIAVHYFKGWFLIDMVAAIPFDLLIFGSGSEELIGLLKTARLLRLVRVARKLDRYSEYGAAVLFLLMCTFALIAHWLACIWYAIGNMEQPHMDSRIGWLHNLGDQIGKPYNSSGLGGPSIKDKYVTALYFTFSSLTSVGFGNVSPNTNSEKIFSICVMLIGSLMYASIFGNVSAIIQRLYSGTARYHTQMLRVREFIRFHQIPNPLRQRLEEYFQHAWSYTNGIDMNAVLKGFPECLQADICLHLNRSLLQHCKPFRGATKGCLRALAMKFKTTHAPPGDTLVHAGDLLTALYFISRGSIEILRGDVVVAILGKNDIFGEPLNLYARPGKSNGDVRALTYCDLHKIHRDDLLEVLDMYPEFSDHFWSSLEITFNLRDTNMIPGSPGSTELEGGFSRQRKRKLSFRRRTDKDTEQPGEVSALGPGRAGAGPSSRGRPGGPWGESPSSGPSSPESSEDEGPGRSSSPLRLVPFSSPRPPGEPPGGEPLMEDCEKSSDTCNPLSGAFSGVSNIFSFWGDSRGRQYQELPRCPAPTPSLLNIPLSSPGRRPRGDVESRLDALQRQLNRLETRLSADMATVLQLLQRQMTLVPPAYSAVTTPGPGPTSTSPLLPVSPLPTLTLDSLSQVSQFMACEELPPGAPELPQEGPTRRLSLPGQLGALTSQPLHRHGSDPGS

Structure (SMILES) | MIC (Pseudomonas aeruginosa) [µg/mL] | MIC (Staphylococcus aureus [1]) [µg/mL] | MIC (Acinetobacter baumannii) [µg/mL] | MIC (Enterococcus faecium) [µg/mL] | MIC (Escherichia coli) [µg/mL] | MIC (Staphylococcus aureus [3]) [µg/mL] | MIC (Streptococcus pneumoniae) [µg/mL] | IC50 [7] [µM] | Ratio (Staphylococcus aureus [8]) | ED50 (Staphylococcus aureus [9]) [mg/kg] | ED50 (Staphylococcus aureus [10]) [mg/kg] | further results
COc1ccc2ncc(F)c(CCC34CCC(NCc5ccc6c(n5)NC(=O)CO6)(CC3)CO4)c2n1 | 4 (≈ 8.1 µM) | 0.008 (≈ 0.0162 µM) | 0.5 (≈ 1.01 µM) | 0.5 (≈ 1.01 µM) | 1 (≈ 2.03 µM) | 0.016 (≈ 0.0324 µM) | 0.125 (≈ 0.253 µM) | – | – | – | – | bioavailability [2]: 71%
COc1ccc2nccc(CCC34CCC(NCc5ccc6c(n5)NC(=O)CO6)(CC3)CO4)c2n1 | 8 (≈ 16.8 µM) | 0.031 (≈ 0.0652 µM) | 2 (≈ 4.21 µM) | 1 (≈ 2.1 µM) | 2 (≈ 4.21 µM) | 0.031 (≈ 0.0652 µM) | 0.5 (≈ 1.05 µM) | – | – | – | – | half-life [4]: 7.97 h; Vd [5]: 5.95 L/kg; bioavailability [2]: 30.4%; AUC/dose (Mus musculus): 0.86 µM·h/mg/kg; clearance [6]: 40.8 mL/min/kg
O=C1COc2ccc(CNC34CCC(CCc5c(F)cnc6ccc(N7CCOCC7)nc56)(CC3)OC4)nc2N1 | 16 (≈ 29.2 µM) | 0.25 (≈ 0.456 µM) | 16 (≈ 29.2 µM) | 8 (≈ 14.6 µM) | 16 (≈ 29.2 µM) | 0.5 (≈ 0.911 µM) | 4 (≈ 7.29 µM) | 11.5 | <4 | – | – | –
CCOc1cc(C)c2ncc(F)c(CCC34CCC(NCc5ccc6c(n5)NC(=O)CO6)(CC3)CO4)c2n1 | 32 (≈ 61.4 µM) | 0.031 (≈ 0.0594 µM) | 4 (≈ 7.67 µM) | 4 (≈ 7.67 µM) | 8 (≈ 15.3 µM) | 0.063 (≈ 0.121 µM) | 1 (≈ 1.92 µM) | 1.19 | <4 | – | – | –
Cc1cc(S(C)(=O)=O)nc2c(CCC34CCC(NCc5ccc6c(n5)NC(=O)CO6)(CC3)CO4)c(F)cnc12 | 32 (≈ 57.6 µM) | 0.125 (≈ 0.225 µM) | 2 (≈ 3.6 µM) | 4 (≈ 7.2 µM) | 8 (≈ 14.4 µM) | 0.125 (≈ 0.225 µM) | 4 (≈ 7.2 µM) | 12.4 | <4 | – | – | –
CN(C)c1cnc2c(CCC34CCC(NCc5ccc6c(n5)NC(=O)CO6)(CC3)CO4)c(F)cnc2c1 | 16 (≈ 31.6 µM) | 16 (≈ 31.6 µM) | 16 (≈ 31.6 µM) | 16 (≈ 31.6 µM) | 16 (≈ 31.6 µM) | 16 (≈ 31.6 µM) | 16 (≈ 31.6 µM) | 18.4 | <4 | – | – | –
Cc1cc(S(C)(=O)=O)nc2c(CCC34CCC(NCc5ccc6c(n5)NC(=O)CO6)(CC3)CO4)ccnc12 | 32 (≈ 59.5 µM) | 1 (≈ 1.86 µM) | 16 (≈ 29.8 µM) | 16 (≈ 29.8 µM) | 32 (≈ 59.5 µM) | 1 (≈ 1.86 µM) | 16 (≈ 29.8 µM) | 6.71 | <4 | – | – | –
COc1ccc2ncc(Cl)c(CCC34CCC(NCc5ccc6c(n5)NC(=O)CO6)(CC3)CO4)c2n1.Cl | – | – | – | – | – | – | – | – | – | > 50 | 17 | –
COc1ccc2nccc(CCC34CCC(NCc5ccc6c(n5)NC(=O)CO6)(CC3)CO4)c2n1.Cl | – | – | – | – | – | – | – | – | – | > 50 | 7.2 | –
COc1ccc2ncc(C#N)c(CCC34CCC(NCc5ccc6c(n5)NC(=O)CO6)(CC3)CO4)c2n1.Cl | – | – | – | – | – | – | – | – | – | 9.6 | 8.6 | –
Cl.N#Cc1ccc2ncc(F)c(CCC34CCC(NCc5ccc6c(n5)NC(=O)CO6)(CC3)CO4)c2n1 | – | – | – | – | – | – | – | – | – | 17 | 20 | –
COc1ccc2ncc(C#N)c(CC(O)C34CCC(NCc5ccc6c(n5)NC(=O)CO6)(CC3)CO4)c2n1.Cl (stereo not drawn) | – | – | – | – | – | – | – | – | – | 6.7 | 5.1 | –
C[C@H]1COc2c(N3CCN(C)CC3)c(F)cc3c(=O)c(C(=O)O)cn1c23.C[C@H]1COc2c(N3CCN(C)CC3)c(F)cc3c(=O)c(C(=O)O)cn1c23.O [LEVOFLOXACIN] | – | – | – | – | – | – | – | – | >64 | – | – | MIC (Staphylococcus aureus [11]): 0.25 µg/mL; MIC (Staphylococcus aureus [12]): > 16 µg/mL
